# Experimental data as given in ChEMBL document CHEMBL1121376, “Antihypertensive (2-aminoethyl)thiourea derivatives. 2” (1980).
# Active and inactive are the calls of the source. The calls are words filed in the database; no cut-off is given here.
# Assays:
# Canis familiaris [1] = assay: Evaluation of antihypertensive activity renally hypertensive dog at dose 10 mg/kg; type: functional, Canis lupus familiaris
# Rattus norvegicus [2] = assay: Evaluation of antihypertensive activity in DOCA/salt hypertensive rats at peroral dose of 10,30,100 mg /kg; value ranges from 12-20%; type: functional
# Rattus norvegicus [3] = assay: Evaluation of decrease in heart rate (antihypertensive activity) in spontaneously hypertensive rats after 3-6h 0f peroral dose of 100 mg /kg; type: functional
# Rattus norvegicus [4] = assay: Evaluation of antihypertensive activity in spontaneously hypertensive rats at peroral dose of 10, 30,100 mg /kg; type: functional
# Rattus norvegicus [5] = assay: Evaluation of antihypertensive activity in DOCA/salt hypertensive rats at peroral dose of 10 mg/kg; no effect on HR; Inactive; type: functional, organism-based; parameters: dose 10 mg/kg
# Canis familiaris [6] = assay: Evaluation of antihypertensive activity renally hypertensive dog at dose 10,30,100mg/kg(po); Inactive; type: functional, organism-based; conditions: Canis lupus familiaris
compound,measurement,setting,value
NCC/N=C(\S)Nc1c(Cl)cccc1Cl,Reduction in arterial blood pressure,Canis familiaris [1],7%
same,Decrease in blood pressure,Rattus norvegicus [2],12%
same,Reduction in heart rate,Rattus norvegicus [3],12.7%
same,Reduction in blood pressure,Rattus norvegicus [4],12.7%
same,Reduction in arterial blood pressure,Rattus norvegicus [5],inactive
same,Reduction in arterial blood pressure,Canis familiaris [6],inactive
